Values after ≈ are worked out from the molar mass of the structure shown.
Key:
Type in all cases: cell-based
[1] = test system: S. aureus; assay: MIC values, S. aureus (Tables 1-4)
[2] = test system: S. pneumo.; assay: MIC values, S. pneumo. (Tables 1-4)
[3] = test system: E. faecalis; assay: MIC values, E. faecalis (Tables 1-4)
[4] = test system: H. flu
[5] = test system: E. coli; assay: MIC values, E. coli (Tables 1-4)

Structure (SMILES) | MIC S. aureus [1] [mg/L] | MIC S. pneumo. [2] [mg/L] | MIC E. faecalis [3] [mg/L] | MIC H. flu [4] [mg/L] | MIC E. coli [5] [mg/L]
CO[C@H]1/C=C/O[C@@]2(C)Oc3c(C)c(O)c4c(=O)c(c5oc6cc(N7CCC(C)(N(C)C)CC7)cc(O)c6nc-5c4c3C2=O)NC(=O)/C(C)=C\C=C\[C@H](C)[C@H](O)[C@@H](C)[C@@H](O)[C@@H](C)[C@H](O)[C@@H]1C [Compound 73] | 0.002 (≈ 0.00222 µM) | 0.00025 (≈ 0.000278 µM) | 0.03 (≈ 0.0334 µM) | 0.12 (≈ 0.133 µM) | 2 (≈ 2.22 µM)
COC1C=COC2(C)Oc3c(C)c(O)c4c(=O)c(c5oc6cc(N7CC8CCCNC8C7)cc(O)c6nc-5c4c3C2=O)NC(=O)C(C)=CC=CC(C)C(O)C(C)C(O)C(C)C(OC(C)=O)C1C (stereo not shown) [Compound 12] | 0.004 (≈ 0.00432 µM) | 0.00025 (≈ 0.00027 µM) | 0.12 (≈ 0.13 µM) | 0.25 (≈ 0.27 µM) | 8 (≈ 8.65 µM)
CO[C@H]1/C=C/O[C@@]2(C)Oc3c(C)c(O)c4c(=O)c(c5oc6cc(N7CCC(NC(=O)OC(C)(C)C)CC7)cc(O)c6nc-5c4c3C2=O)NC(=O)/C(C)=C\C=C\[C@H](C)[C@H](O)[C@@H](C)[C@@H](O)[C@@H](C)[C@H](OC(C)=O)[C@@H]1C [Compound 48] | 0.008 (≈ 0.00801 µM) | 0.00025 (≈ 0.00025 µM) | 2 (≈ 2 µM) | 1 (≈ 1 µM) | >8
CCOC(=O)N1CCCC2CN(c3cc(O)c4nc5c6c7c8c(C)c(O)c6c(=O)c(c-5oc4c3)NC(=O)C(C)=CC=CC(C)C(O)C(C)C(O)C(C)C(O)C(C)C(OC)C=COC(C)(O8)C7=O)CC21 (stereo not shown) [Compound 42] | 0.008 (≈ 0.00838 µM) | 0.00012 (≈ 0.000126 µM) | 2 (≈ 2.09 µM) | 0.5 (≈ 0.524 µM) | 8 (≈ 8.38 µM)
CO[C@H]1/C=C/O[C@@]2(C)Oc3c(C)c(O)c4c(=O)c(c5oc6cc(N(C)CC(C)C)cc(O)c6nc-5c4c3C2=O)NC(=O)/C(C)=C\C=C\[C@H](C)[C@H](O)[C@@H](C)[C@@H](O)[C@@H](C)[C@H](O)[C@@H]1C [Compound 128] | 0.015 (≈ 0.0178 µM) | 0.002 (≈ 0.00237 µM) | 0.5 (≈ 0.592 µM) | 0.5 (≈ 0.592 µM) | >8
CO[C@H]1/C=C/O[C@@]2(C)Oc3c(C)c(O)c4c(=O)c(c5oc6cc(N7CCC(NC(=O)N8CCN(C)CC8)CC7)cc(O)c6nc-5c4c3C2=O)NC(=O)/C(C)=C\C=C\[C@H](C)[C@H](O)[C@@H](C)[C@@H](O)[C@@H](C)[C@H](OC(C)=O)[C@@H]1C [Compound 50] | 0.03 (≈ 0.0293 µM) | 0.00012 (≈ 0.000117 µM) | 4 (≈ 3.9 µM) | 0.5 (≈ 0.488 µM) | >8
CO[C@H]1/C=C/O[C@@]2(C)Oc3c(C)c(O)c4c(=O)c(c5oc6cc(N7CCC(CCO)CC7)cc(O)c6nc-5c4c3C2=O)NC(=O)/C(C)=C\C=C\[C@H](C)[C@H](O)[C@@H](C)[C@@H](O)[C@@H](C)[C@H](O)[C@@H]1C [Compound 66] | 0.004 (≈ 0.00451 µM) | 0.0005 (≈ 0.000564 µM) | 0.12 (≈ 0.135 µM) | 0.12 (≈ 0.135 µM) | 4 (≈ 4.51 µM)
CO[C@H]1/C=C/O[C@@]2(C)Oc3c(C)c(O)c4c(=O)c(c5oc6cc(N(C)CCC#N)ccc6nc-5c4c3C2=O)NC(=O)/C(C)=C\C=C\[C@H](C)[C@H](O)[C@@H](C)[C@@H](O)[C@@H](C)[C@H](O)[C@@H]1C [Compound 130] | 0.06 (≈ 0.0727 µM) | 0.008 (≈ 0.0097 µM) | 0.5 (≈ 0.606 µM) | 0.12 (≈ 0.145 µM) | 8 (≈ 9.7 µM)
COC1C=COC2(C)Oc3c(C)c(O)c4c(=O)c(c5oc6cc(N7CC8CCCNC8C7)cc(O)c6nc-5c4c3C2=O)NC(=O)C(C)=CC=CC(C)C(O)C(C)C(O)C(C)C(O)C1C (stereo not shown) [Compound 144] | 0.03 (≈ 0.034 µM) | 0.002 (≈ 0.00226 µM) | 0.25 (≈ 0.283 µM) | 1 (≈ 1.13 µM) | >8
COC1C=COC2(C)Oc3c(C)c(O)c4c(=O)c(c5oc6cc(N7CC8CCCNC8C7)cc(O)c6nc-5c4c3C2=O)NC(=O)C(C)=CC=CC(C)C(O)C(C)C(O)C(C)C(OC(C)=O)C1C (stereo not shown) [Compound 141] | 0.015 (≈ 0.0162 µM) | 0.00025 (≈ 0.00027 µM) | 0.5 (≈ 0.541 µM) | 2 (≈ 2.16 µM) | 8 (≈ 8.65 µM)
COC1C=COC2(C)Oc3c(C)c(O)c4c(=O)c(c5oc6cc(N7CC8C(N)C8C7)cc(O)c6nc-5c4c3C2=O)NC(=O)C(C)=CC=CC(C)C(O)C(C)C(O)C(C)C(OC(C)=O)C1C (stereo not shown) [Compound 4] | 0.03 (≈ 0.0334 µM) | 0.00025 (≈ 0.000279 µM) | 0.5 (≈ 0.557 µM) | 0.25 (≈ 0.279 µM) | >8
CO[C@H]1/C=C/O[C@@]2(C)Oc3c(C)c(O)c4c(=O)c(c5oc6cc(N7CCC(NC(=O)OC(C)(C)C)CC7)cc(O)c6nc-5c4c3C2=O)NC(=O)/C(C)=C\C=C\[C@H](C)[C@H](O)[C@@H](C)[C@@H](O)[C@@H](C)[C@H](O)[C@@H]1C [Compound 52] | 0.015 (≈ 0.0157 µM) | 0.00025 (≈ 0.000261 µM) | 4 (≈ 4.18 µM) | 0.12 (≈ 0.125 µM) | >8
CO[C@H]1/C=C/O[C@@]2(C)Oc3c(C)c(O)c4c(=O)c(c5oc6cc(N7CCC(NS(=O)(=O)C(F)(F)F)CC7)cc(O)c6nc-5c4c3C2=O)NC(=O)/C(C)=C\C=C\[C@H](C)[C@H](O)[C@@H](C)[C@@H](O)[C@@H](C)[C@H](OC(C)=O)[C@@H]1C [Compound 23] | 0.015 (≈ 0.0145 µM) | 0.00012 (≈ 0.000116 µM) | 4 (≈ 3.88 µM) | 2 (≈ 1.94 µM) | >8
CO[C@H]1/C=C/O[C@@]2(C)Oc3c(C)c(O)c4c(=O)c(c5sc6cc(N7CCCN(C)CC7)ccc6nc-5c4c3C2=O)NC(=O)/C(C)=C\C=C\[C@H](C)[C@H](O)[C@@H](C)[C@@H](O)[C@@H](C)[C@H](O)[C@@H]1C [Compound 125] | 0.002 (≈ 0.0023 µM) | 0.00025 (≈ 0.000287 µM) | 0.25 (≈ 0.287 µM) | 0.12 (≈ 0.138 µM) | 2 (≈ 2.3 µM)
CCOC(=O)N1CCCC2CN(c3cc(O)c4nc5c6c7c8c(C)c(O)c6c(=O)c(c-5oc4c3)NC(=O)C(C)=CC=CC(C)C(O)C(C)C(O)C(C)C(O)C(C)C(OC)C=COC(C)(O8)C7=O)CC21 (stereo not shown) [Compound 148] | 0.008 (≈ 0.00838 µM) | 0.00012 (≈ 0.000126 µM) | 2 (≈ 2.09 µM) | 0.5 (≈ 0.524 µM) | 8 (≈ 8.38 µM)
CCOC(=O)NC1CCN(c2ccc3nc4c5c6c7c(C)c(O)c5c(=O)c(c-4n(C)c3c2)NC(=O)/C(C)=C\C=C\[C@H](C)[C@H](O)[C@@H](C)[C@@H](O)[C@@H](C)[C@H](OC(C)=O)[C@H](C)[C@@H](OC)/C=C/O[C@@](C)(O7)C6=O)CC1 [Compound 19] | 0.004 (≈ 0.00413 µM) | 0.001 (≈ 0.00103 µM) | 0.06 (≈ 0.062 µM) | 0.25 (≈ 0.258 µM) | 4 (≈ 4.13 µM)
CCCS(=O)(=O)NC1CCN(c2cc(O)c3nc4c5c6c7c(C)c(O)c5c(=O)c(c-4oc3c2)NC(=O)/C(C)=C\C=C\[C@H](C)[C@H](O)[C@@H](C)[C@@H](O)[C@@H](C)[C@H](O)[C@H](C)[C@@H](OC)/C=C/O[C@@](C)(O7)C6=O)CC1 [Compound 67] | 0.008 (≈ 0.00831 µM) | 0.001 (≈ 0.00104 µM) | 0.5 (≈ 0.519 µM) | 0.12 (≈ 0.125 µM) | >8
COCCOC(=O)NC1CCN(c2cc(O)c3nc4c5c6c7c(C)c(O)c5c(=O)c(c-4oc3c2)NC(=O)/C(C)=C\C=C\[C@H](C)[C@H](O)[C@@H](C)[C@@H](O)[C@@H](C)[C@H](O)[C@H](C)[C@@H](OC)/C=C/O[C@@](C)(O7)C6=O)CC1 [Compound 63] | 0.008 (≈ 0.00834 µM) | 0.002 (≈ 0.00209 µM) | 1 (≈ 1.04 µM) | 0.25 (≈ 0.261 µM) | 8 (≈ 8.34 µM)
CO[C@H]1/C=C/O[C@@]2(C)Oc3c(C)c(O)c4c(=O)c(c5oc6cc(N7CCN(CCN(C)C)CC7)cc(O)c6nc-5c4c3C2=O)NC(=O)/C(C)=C\C=C\[C@H](C)[C@H](O)[C@@H](C)[C@@H](O)[C@@H](C)[C@H](O)[C@@H]1C [Compound 103] | 0.03 (≈ 0.0328 µM) | 0.008 (≈ 0.00875 µM) | 0.5 (≈ 0.547 µM) | 0.12 (≈ 0.131 µM) | >8
COC1C=COC2(C)Oc3c(C)c(O)c4c(=O)c(c5oc6cc(N7CC8CCCNC8C7)cc(O)c6nc-5c4c3C2=O)NC(=O)C(C)=CC=CC(C)C(O)C(C)C(O)C(C)C(OC(C)=O)C1C (stereo not shown) [Compound 5] | 0.015 (≈ 0.0162 µM) | 0.00025 (≈ 0.00027 µM) | 0.5 (≈ 0.541 µM) | 2 (≈ 2.16 µM) | 8 (≈ 8.65 µM)
